Experiments:
Nucleic Acid [1] = assay: Binding affinity to d(TTAGGG) sequence of G-quadruplex DNA; type: nucleic-acid assay
Nucleic Acid [2] = assay: Binding affinity to DNA duplex; type: nucleic-acid assay

| Compound | K (Nucleic Acid [1]) | K (Nucleic Acid [2]) |
| --- | --- | --- |
| C[n+]1ccc(-c2c3nc(c(-c4cc[n+](C)cc4)c4ccc([nH]4)c(-c4cc[n+](C)cc4)c4ccc([nH]4)c(-c4cc[n+](C)cc4)c4nc2C=C4)C=C3)cc1 | 1.38 ×10⁷ /mol | 2.73 ×10⁶ /mol |
| C[N+](C)(C)Cc1cc(-c2c3nc(c(-c4ccc(O)c(C[N+](C)(C)C)c4)c4ccc([nH]4)c(-c4ccc(O)c(C[N+](C)(C)C)c4)c4nc(c(-c5ccc(O)c(C[N+](C)(C)C)c5)c5ccc2[nH]5)C=C4)C=C3)ccc1O | 1.12 ×10⁶ /mol | 3.18 ×10⁴ /mol |
